Consider eight compounds from patent publication US10562857B2 (AFASCI, Inc., priority 2015, dated 2020).

In one experiment the target is T1, Cav3.1 (Homo sapiens, UniProt O43497).
T1 construct: expressed in transfected cells; host or cells: HEK-293, tetracycline inducible expression system (Invitrogen)
The experiment can be described thus: Whole-cell patch clamp of T-type Cav3.1 channel expressed in HEK293 cells. It counts as cell-based. The conditions noted are these: Table 2. The protocol: (§1) Cav3.1, Cav3.2 or Cav3.3 channels were expressed in human embryonic kidney (HEK)-293 cells using a tetracycline inducible expression system (Invitrogen). Cells were maintained in 25 cm^2 tissue culture flasks at 37° C., 5% CO2, and 100% relative humidity in D-MEM/F12 (Dulbecco's Modified Eagle Medium/Nutrient Mixture F-12; Gibco) supplemented with fetal bovine serum (FBS, 10% v/v), sodium pyruvate (0.5 mM, Gibco), penicillin-streptomycin (100 U/mL, 100 μg/mL) and Geneticin® Selective antibiotic (G418; 0.5 mg/mL). Cells were detached from the flask base using a non-enzymatic cell dissociation solution (Cellstripper, Corning), removed and re-seeded on to poly-D-lysine coated glass coverslips in 35 mm dishes.
(§2) Whole-cell voltage clamp recordings were performed on rat or mouse DRG neurons within 2 days after acutely dissociation or cultured HEK293 cells expressing T-type channels (encoded by Cav3.1, Cav3.2 or Cav3.3 channels). All experiments were performed at room temperature (around 21° C.). Whole-cell currents were recorded using a MultiClamp 700B amplifier and analyzed offline with pCLAMP10.4 software (Molecular Devices, LLC, Sunnyvale Calif., USA). […] Since the sodium ions were absent in the external solution, tetrodoctoxin was not needed. Calcium currents were recorded at a holding potential of −100 mV and then depolarized to −30 mV for 100 ms to activate either Cav3.1, Cav3.2, or Cav3.3 expressed in HEK cells. An interpulse interval of 10 seconds allowed the channel recovery from inactivation, and achieved stable current recordings. To record sodium (Na^+) currents in DRG neurons, the external solution used the modified Krebs solution specified above. The internal solution was composed (in mM) of 120 CsF, 10 HEPES, 11 EGTA, 1 CaCl2, 1 MgCl2, 10 TEA-Cl, 4 MgATP and 0.3 MgGTP (pH 7.3-7.4 adjusted with CsOH). […] To record potassium currents in DRG neurons, the external solution used the modified Kreb's solution specified above. The internal solution was composed (in mM) of 65 KCl, 80 KF, 5 KOH, 10 EGTA, 2 MgATP (pH 7.3-7.4 adjusted with KOH). Recording electrodes were fabricated using a P-87 puller (Sutter Instrument Co., Novato, Calif., USA). The tip of resistance was 3-4 MQ in bath and the series resistance was less than 10 MΩ after whole cell configuration. All reagents were purchased from Sigma unless specified otherwise. Test compounds were usually applied via a rapid solution exchange system with 8 fine polyplastic tubings (100 μm, OD) glued in a holder in parallel and located closely to the recorded cells. The current responses were normalized to the control, percent inhibition was calculated and sigmoidal dose-response curves were generated using XLFit (IDBS, Surrey, UK) or Prism (GraphPad Software, La Jolla, Calif., US) to calculate IC50 values and Hill slopes using the following equation Y=Bottom+(Top−Bottom)/(1+10^((Log EC50−X)[…])).
On the technique in general: The patch-clamp technique gives a direct electrical read-out from membranes.

The target in a further experiment is T2, Cav3.3 (Homo sapiens, UniProt Q9P0X4).
T2 construct: expressed in transfected cells; host or cells: HEK-293, tetracycline inducible expression system (Invitrogen)
T2 sequence (Q9P0X4 whole entry, species assumed): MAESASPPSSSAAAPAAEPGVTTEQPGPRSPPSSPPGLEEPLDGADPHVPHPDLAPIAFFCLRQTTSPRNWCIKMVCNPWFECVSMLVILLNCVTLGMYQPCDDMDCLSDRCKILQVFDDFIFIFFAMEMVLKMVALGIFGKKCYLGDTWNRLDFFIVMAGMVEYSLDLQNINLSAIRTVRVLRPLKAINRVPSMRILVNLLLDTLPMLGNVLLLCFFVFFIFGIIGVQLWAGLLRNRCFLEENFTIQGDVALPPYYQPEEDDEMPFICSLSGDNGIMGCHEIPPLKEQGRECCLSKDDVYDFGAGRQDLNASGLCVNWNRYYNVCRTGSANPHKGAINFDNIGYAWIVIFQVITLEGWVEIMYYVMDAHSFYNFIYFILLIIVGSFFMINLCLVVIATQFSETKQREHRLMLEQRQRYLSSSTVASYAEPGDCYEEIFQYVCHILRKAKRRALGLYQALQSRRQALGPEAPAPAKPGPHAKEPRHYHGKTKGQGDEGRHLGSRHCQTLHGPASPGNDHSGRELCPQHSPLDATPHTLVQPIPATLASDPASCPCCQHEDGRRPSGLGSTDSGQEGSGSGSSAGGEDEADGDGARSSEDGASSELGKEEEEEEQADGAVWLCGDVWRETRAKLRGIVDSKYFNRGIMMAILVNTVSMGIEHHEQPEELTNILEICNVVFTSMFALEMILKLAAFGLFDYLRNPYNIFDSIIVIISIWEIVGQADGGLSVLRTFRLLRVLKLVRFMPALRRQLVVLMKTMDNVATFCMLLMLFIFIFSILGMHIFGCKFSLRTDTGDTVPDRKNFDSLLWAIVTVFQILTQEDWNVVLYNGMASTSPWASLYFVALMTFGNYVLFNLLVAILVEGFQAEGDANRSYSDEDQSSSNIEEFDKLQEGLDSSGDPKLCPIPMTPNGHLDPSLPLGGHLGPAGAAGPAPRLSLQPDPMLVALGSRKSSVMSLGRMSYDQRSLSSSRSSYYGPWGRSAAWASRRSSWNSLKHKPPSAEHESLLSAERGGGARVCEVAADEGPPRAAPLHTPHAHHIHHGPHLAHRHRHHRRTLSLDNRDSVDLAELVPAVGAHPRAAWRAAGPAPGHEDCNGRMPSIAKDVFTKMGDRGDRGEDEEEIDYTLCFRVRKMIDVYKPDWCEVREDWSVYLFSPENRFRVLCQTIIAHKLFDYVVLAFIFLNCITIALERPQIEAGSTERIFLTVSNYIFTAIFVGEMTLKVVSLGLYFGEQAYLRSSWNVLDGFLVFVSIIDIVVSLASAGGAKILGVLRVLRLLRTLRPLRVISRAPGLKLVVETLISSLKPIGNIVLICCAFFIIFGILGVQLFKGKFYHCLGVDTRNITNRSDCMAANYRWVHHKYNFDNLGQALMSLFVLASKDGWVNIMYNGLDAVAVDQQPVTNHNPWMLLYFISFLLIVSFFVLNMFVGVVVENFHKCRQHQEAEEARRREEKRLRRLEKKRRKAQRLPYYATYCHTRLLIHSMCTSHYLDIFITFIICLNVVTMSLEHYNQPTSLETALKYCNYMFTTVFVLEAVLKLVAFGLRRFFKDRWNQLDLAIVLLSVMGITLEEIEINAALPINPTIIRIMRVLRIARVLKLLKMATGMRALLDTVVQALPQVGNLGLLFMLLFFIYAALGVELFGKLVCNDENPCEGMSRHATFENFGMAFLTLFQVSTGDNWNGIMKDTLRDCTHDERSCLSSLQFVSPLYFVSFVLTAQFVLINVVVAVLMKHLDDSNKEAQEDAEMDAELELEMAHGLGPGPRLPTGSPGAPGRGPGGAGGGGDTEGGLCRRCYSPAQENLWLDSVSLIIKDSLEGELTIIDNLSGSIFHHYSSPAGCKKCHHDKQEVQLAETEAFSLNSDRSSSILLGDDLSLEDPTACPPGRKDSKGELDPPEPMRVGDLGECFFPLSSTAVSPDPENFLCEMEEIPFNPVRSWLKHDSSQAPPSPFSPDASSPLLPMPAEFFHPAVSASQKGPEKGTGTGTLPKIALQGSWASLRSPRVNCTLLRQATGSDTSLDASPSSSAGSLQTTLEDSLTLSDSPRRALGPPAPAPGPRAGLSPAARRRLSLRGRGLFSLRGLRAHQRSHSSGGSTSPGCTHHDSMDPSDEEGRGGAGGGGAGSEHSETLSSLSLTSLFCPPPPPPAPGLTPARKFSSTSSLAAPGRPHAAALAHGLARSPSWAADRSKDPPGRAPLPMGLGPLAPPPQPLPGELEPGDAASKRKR
The experiment can be described thus: Whole-cell patch clamp of T-type Cav3.3 channel expressed in HEK293 cells. In kind it is cell-based. The note with it: Table 2. The protocol:
as §1, §2

Experiment [1] relates to PTZ-induced seizures in mice. In words: Pentylenetetrazol (PTZ)-induced seizures in mice. It counts as in vivo, mouse. The conditions noted are these: for PTZ-induced Fatality (%): 30 mg/kg I.P. 60 min before PTZ 40 mg/kg I.P., death within 20 min; for latency to seizures / fatality latency / fatality rate: 30 mg/kg I.P., PTZ 40 mg/kg I.P.; for fatality latency / fatality rate: 20 min cutoff. The procedure: FIG. 10. […] Sixty minutes (min) prior to receiving PTZ (40 mg/kg, I.P.), each mouse was pretreated with either an Example compound, ML218, Z944 or vehicle (2% DMSO in 0.5% HPC). Fatality rate (%) of mice in each group that dies within the 20 minutes observation period—was calculated. Both fatality rate and latency (data not shown) to death were used to evaluate the Example compound's ability to prevent death resulting from PTZ-induced seizures. A cutoff of 20 minutes was set for observational and statistical analysis purposes.
It is well known that antiepileptics, e.g. carbamazepine, lamotrigine and gabapentin are used for the treatment of neuropathic pain (Xie et al., 1995, Caviedes and Herranz, 2001). T-channel overactivation is involved in the generation of seizure activity (Huguenard, 1998, Cribbs et al., 2000, Perez-Reyes et al., 2009, Perez-Reyes, 2010). […] Fatality latency and rate—the percentage (%) of mice in each treatment group that died within a 20 minute cutoff of the observational period, were recorded and calculated. Averaged fatality latency and rate of each treatment group was used to evaluate the Example compound's ability to either prevent or delay the onset of PTZ-induced seizures and death.

The next experiment has as its system DRG ion channels K+. In words: Potassium currents in DRG neurons, patch clamp. It counts as cell-based, rodent. The conditions noted are these: Table 2. The protocol:
All the procedures related to animal handling were in strict accordance with NIH guidelines and IACUC approved protocols. Briefly, the spine was taken out and split into two halves from the middle line after sacrificing the mice by decapitation. […] The DRG neurons were minced with fine scissors and incubated at 35° C. for 50 min. […] Finally the cells were dispersed onto poly-1-ornithine-coated cover slips and maintained in a modified Krebs solution with streptomycin sulfate (0.2 mM), Penicillin G Sodium (0.3 mM), and Gentamycin (0.1 mM) at 21° C. […] All experiments were performed at room temperature (around 21° C.). Whole-cell currents were recorded using a MultiClamp 700B amplifier and analyzed offline with pCLAMP10.4 software (Molecular Devices, LLC, Sunnyvale Calif., USA). […] The internal solution was composed (in mM) of 125 CsCl, 10 HEPES (acid), 10 EGTA (ethylene glycol tetraacetic acid), 1 CaCl2, 1 MgCl2, 4 MgATP and 0.3 […] 7.3-7.4 adjusted with CsOH; osmolality verified as 295 mOsm/kg). Since the sodium ions were absent in the external solution, tetrodoctoxin was not needed. […] To record sodium (Na^+) currents in DRG neurons, the external solution used the modified Krebs solution specified above. […] To record potassium currents in DRG neurons, the external solution used the modified Kreb's solution specified above. The internal solution was composed (in mM) of 65 KCl, 80 KF, 5 KOH, 10 EGTA, 2 MgATP (pH 7.3-7.4 adjusted with KOH). Recording electrodes were fabricated using a P-87 puller (Sutter Instrument Co., Novato, Calif., USA). […] All reagents were purchased from Sigma unless specified otherwise. […] Selectivity among the three subtypes of the Cav3 T-type channel, and off-target effects on other key ion channels of the representative example compounds are presented in Table 2. Sodium and potassium channels in the rodent DRG neurons were recorded and tested as described above. The human ether-a-go-go-related gene (hERG) encodes the rapidly activating potassium channel (IKr) contributing to the repolarization of the cardiac action potential. The blockade of hERG can lead to a QT prolongation in the electrocardiogram known as long QT syndrome (Sanguinetti, et al., 1995). Therefore the representative example compounds in Table 2 were tested against the hERG channel.

T1 sequence (O43497 whole entry): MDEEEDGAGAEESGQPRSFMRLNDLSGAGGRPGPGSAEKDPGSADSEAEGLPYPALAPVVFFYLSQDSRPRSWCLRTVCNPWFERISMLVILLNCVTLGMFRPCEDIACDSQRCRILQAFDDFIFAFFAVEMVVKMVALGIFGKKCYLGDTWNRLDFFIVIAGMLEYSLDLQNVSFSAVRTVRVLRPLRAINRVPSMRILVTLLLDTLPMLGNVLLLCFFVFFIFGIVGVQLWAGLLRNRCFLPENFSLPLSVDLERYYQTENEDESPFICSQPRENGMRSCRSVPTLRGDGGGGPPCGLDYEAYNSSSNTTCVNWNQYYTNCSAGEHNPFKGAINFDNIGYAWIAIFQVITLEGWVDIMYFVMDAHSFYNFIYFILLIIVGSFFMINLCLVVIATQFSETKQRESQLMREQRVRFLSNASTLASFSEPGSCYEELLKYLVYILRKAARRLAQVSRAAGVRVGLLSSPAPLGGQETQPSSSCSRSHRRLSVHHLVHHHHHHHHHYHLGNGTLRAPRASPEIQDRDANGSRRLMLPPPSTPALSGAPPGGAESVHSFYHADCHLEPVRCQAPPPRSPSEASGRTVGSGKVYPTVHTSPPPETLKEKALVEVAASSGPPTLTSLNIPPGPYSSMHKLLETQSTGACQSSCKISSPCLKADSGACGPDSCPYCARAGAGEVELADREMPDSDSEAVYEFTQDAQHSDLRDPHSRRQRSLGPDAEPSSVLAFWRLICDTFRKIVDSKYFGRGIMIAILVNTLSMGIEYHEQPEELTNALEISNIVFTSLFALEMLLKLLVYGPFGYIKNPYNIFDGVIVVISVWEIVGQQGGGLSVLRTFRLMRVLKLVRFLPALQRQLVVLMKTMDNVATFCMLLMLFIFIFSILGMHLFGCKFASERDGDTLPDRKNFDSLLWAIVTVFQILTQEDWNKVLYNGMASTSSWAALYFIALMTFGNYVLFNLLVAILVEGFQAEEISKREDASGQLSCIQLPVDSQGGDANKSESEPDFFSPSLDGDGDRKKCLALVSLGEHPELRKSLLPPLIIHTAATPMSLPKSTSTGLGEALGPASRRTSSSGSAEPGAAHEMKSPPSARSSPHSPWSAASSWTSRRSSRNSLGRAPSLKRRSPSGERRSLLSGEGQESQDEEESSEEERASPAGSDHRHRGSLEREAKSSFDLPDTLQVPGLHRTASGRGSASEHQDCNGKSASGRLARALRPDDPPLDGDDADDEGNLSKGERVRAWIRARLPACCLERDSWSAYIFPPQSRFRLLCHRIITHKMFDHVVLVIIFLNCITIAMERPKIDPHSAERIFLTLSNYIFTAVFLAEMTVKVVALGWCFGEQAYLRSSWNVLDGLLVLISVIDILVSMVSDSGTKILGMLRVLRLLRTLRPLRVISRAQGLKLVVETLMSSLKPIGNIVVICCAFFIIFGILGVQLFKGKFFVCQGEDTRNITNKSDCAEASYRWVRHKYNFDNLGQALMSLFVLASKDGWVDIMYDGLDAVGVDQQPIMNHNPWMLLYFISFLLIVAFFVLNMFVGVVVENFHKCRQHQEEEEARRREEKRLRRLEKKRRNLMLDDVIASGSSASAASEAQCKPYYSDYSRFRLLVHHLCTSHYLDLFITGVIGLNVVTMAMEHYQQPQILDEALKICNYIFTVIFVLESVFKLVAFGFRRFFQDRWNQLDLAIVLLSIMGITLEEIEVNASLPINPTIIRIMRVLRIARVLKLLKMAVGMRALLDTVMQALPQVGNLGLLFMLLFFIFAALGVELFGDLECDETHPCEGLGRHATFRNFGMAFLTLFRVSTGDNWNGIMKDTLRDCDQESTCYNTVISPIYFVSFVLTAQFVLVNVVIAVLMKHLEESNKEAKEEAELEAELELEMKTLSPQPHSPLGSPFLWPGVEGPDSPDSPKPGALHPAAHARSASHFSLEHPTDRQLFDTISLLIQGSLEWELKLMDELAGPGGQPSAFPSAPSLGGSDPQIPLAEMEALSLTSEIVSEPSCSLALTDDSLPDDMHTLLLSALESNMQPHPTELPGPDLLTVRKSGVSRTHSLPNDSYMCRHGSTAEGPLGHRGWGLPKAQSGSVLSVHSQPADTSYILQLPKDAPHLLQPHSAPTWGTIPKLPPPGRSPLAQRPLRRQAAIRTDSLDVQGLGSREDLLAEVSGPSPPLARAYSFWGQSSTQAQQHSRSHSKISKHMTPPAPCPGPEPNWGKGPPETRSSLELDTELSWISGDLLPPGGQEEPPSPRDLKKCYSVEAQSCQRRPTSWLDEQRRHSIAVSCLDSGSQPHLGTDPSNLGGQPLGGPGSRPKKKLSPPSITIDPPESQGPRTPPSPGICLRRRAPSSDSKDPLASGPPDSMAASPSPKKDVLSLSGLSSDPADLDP

As a reminder, the IC50 is the concentration that gives 50% inhibition. Low values mean inhibition by little substance, high ones a need for much substance. The compound `CC(C)(C)NC(=O)CN1CCC2(CC1)CC2NC(=O)c1cc(F)cc(Cl)c1` (single isomer, unassigned) [Example 128, (S)—N-(6-(2-(tert-Butylamino)-2-oxoethyl)-6-azaspiro[2.5]octan-1-yl)-3-chloro-5-fluorobenzamide or (R)—N-(6-(2-(tert-Butylamino)-2-oxoethyl)-6-azaspiro[2.5]octan-1-yl)-3-chloro-5-fluorobenzamide] returned an IC50 at Cav3.1 of 60 nM. In addition, the IC50 against Cav3.3 was determined as 750 nM. In addition, in experiment [1], the “PTZ-induced Fatality (%)” value came to 16.7%, the latency to seizures result is reported as “significantly prolonged latencies to seizures”, the fatality latency entry is given as “prolonged fatality latencies” and the fatality rate entry is “decreased the fatality rate”. The IC50 with DRG ion channels K+ is greater than 100 µM.
Turning to `CC(C)(C)NC(=O)CN1CCC2(CC1)C[C@H]2C(=O)Nc1cc(C(F)(F)F)cc(C(F)(F)F)c1` (single isomer, unassigned) [Example 132, (R)—N-(3,5-Bis(trifluoromethyl)phenyl)-6-(2-(tert-butylamino)-2-oxoethyl)-6-azaspiro[2.5]octane-1-carboxamide or (S)—N-(3,5-Bis(trifluoromethyl)phenyl)-6-(2-(tert-butylamino)-2-oxoethyl)-6-azaspiro[2.5]octane-1-carboxamide], the IC50 at Cav3.1 was determined as 120 nM. This compound also gave an IC50 against Cav3.3 of 7610 nM. Further, in experiment [1], the latency to seizures result is “significantly prolonged latencies to seizures”, the fatality latency result is given as “prolonged fatality latencies” and the fatality rate result is “decreased the fatality rate”. This compound also displayed an IC50 in the experiment with DRG ion channels K+ greater than 100 µM.
As for `CC(C)(C)CCN1C[C@@H]2[C@@H](CNC(=O)c3cc(Cl)cc(Cl)c3)[C@@H]2C1` [ML218, 3,5-Dichloro-N-[[(1α,5α,6-exo,6α)-3-(3,3-dimethylbutyl)-3-azabicyclo[3.1.0]hex-6-yl]methyl]benzamide, reference compound], the IC50 against Cav3.1 stood at 140 nM. Besides, inhibition against Cav3.3 was half-maximal at 270 nM (IC50). Also, in experiment [1], the “PTZ-induced Fatality (%)” value came out at 50%, the latency to seizures result is recorded as “significantly prolonged latencies to seizures”, the fatality latency result is given as “prolonged fatality latencies” and the fatality rate result is reported as “decreased the fatality rate”. In the experiment with DRG ion channels K+, the IC50 was found to be 79.7 µM.
Regarding `CC(C)(C)NC(=O)CN1CCC2(CC1)C[C@H]2NC(=O)C12CC3CC(CC(C3)C1)C2` (single isomer, unassigned) [Example 145, N—((R)-6-(2-(tert-butylamino)-2-oxoethyl)-6-azaspiro[2.5]octan-1-yl)adamantane-1-carboxamide or N—((S)-6-(2-(tert-butylamino)-2-oxoethyl)-6-azaspiro[2.5]octan-1-yl)adamantane-1-carboxamide], half-maximal inhibition on Cav3.1 (IC50) required 70 nM. For the same compound, the IC50 on Cav3.3 is 310 nM. Moreover, in experiment [1], the latency to seizures result is on record as “significantly prolonged latencies to seizures”, the fatality latency entry was “prolonged fatality latencies” and the fatality rate entry was “decreased the fatality rate”. The compound further returned an IC50 in the experiment on DRG ion channels K+ greater than 30 µM.
For the compound `CC(C)(C)CCN1CCC2(CC1)CC2NC(=O)c1cc(F)cc(Cl)c1` (stereo not drawn) [Example 28, 3-Chloro-N-(6-(3,3-dimethylbutyl)-6-azaspiro[2.5]octan-1-yl)-5-fluorobenzamide], the IC50 on Cav3.1 is 280 nM; at Cav3.3, 210 nM; with DRG ion channels K+ it was roughly 100 µM. For the same compound, in experiment [1], the latency to seizures entry is on record as “significantly prolonged latencies to seizures”. For the same compound, the fatality latency result in experiment [1] was “prolonged fatality latencies”. For the same compound, the fatality rate result in experiment [1] is “decreased the fatality rate”.
Take `CC(C)(C)NC(=O)CN1CCC(CNC(=O)c2cc(F)cc(Cl)c2)CC1` [Z944, reference compound]: the IC50 at Cav3.1 stood at 110 nM. Also, half-maximal inhibition against Cav3.3 (IC50) required 570 nM. In addition, in experiment [1], the “PTZ-induced Fatality (%)” value was determined as 33.3%, the latency to seizures result is “significantly prolonged latencies to seizures”, the fatality latency result was “prolonged fatality latencies” and the fatality rate result was “decreased the fatality rate”. The compound also displayed an IC50 in the experiment on DRG ion channels K+ greater than 30 µM.
`CC(C)(C)NC(=O)CN1CCC2(CC1)C[C@H]2NC(=O)c1cc(F)cc(Cl)c1` (single isomer, unassigned) [Example 129, (R)—N-(6-(2-(tert-Butylamino)-2-oxoethyl)-6-azaspiro[2.5]octan-1-yl)-3-chloro-5-fluorobenzamide or (S)—N-(6-(2-(tert-Butylamino)-2-oxoethyl)-6-azaspiro[2.5]octan-1-yl)-3-chloro-5-fluorobenzamide] registered an IC50 on Cav3.1 of 1040 nM. The midpoint of inhibition against Cav3.3, the IC50, lay at 1630 nM. Moreover, in experiment [1], the latency to seizures result is reported as “significantly prolonged latencies to seizures”, the fatality latency result is listed as “prolonged fatality latencies” and the fatality rate entry was “decreased the fatality rate”. For the same compound, in the experiment with DRG ion channels K+, the IC50 is greater than 100 µM.
For `CC(C)(C)NC(=O)CN1CCC2(CC1)CC2C(=O)Nc1cc(F)cc(C(F)(F)F)c1` (stereo not drawn) [Example 141, 6-(2-(tert-Butylamino)-2-oxoethyl)-N-(3-fluoro-5-(trifluoromethyl)phenyl)-6-azaspiro[2.5]octane-1-carboxamide], the IC50 against Cav3.1 is 340 nM; against Cav3.3, 230 nM; in the experiment with DRG ion channels K+ it was greater than 30 µM. The latency to seizures result in experiment [1] is listed as “significantly prolonged latencies to seizures”. The fatality latency result in experiment [1] is given as “prolonged fatality latencies”. For the same compound, the fatality rate result in experiment [1] was “decreased the fatality rate”.
